13 molecules from PubChem BioAssay (NCI) can be followed below.

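Values below derive from 48-hour exposures of cells grown in 96-well plates, with endpoints linearly interpolated between the two concentrations bracketing the appropriate inhibition level. Here, GI50 denotes the concentration required for 50% inhibition of growth. TGI: total growth inhibition.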

Among the test systems are 786-0 renal; EKVX NSCLC; HT29 colon; NCI-H460 lung; RXF 393 renal; SF-295 CNS; BT-549 breast; HOP-92 NSCLC; MDA-MB-435; CCRF-CEM leukemia.
What all share (assay): growth of human tumour cells (NCI), 48 h

As to `O=C1C2c3[nH]c4ccccc4c3[C@@H]3CCCCCCCCCCC3C2C(=O)N1c1ccccc1` (some centres not stated), the TGI was 35.7 µM with 786-0 renal; over 100 µM in the test with EKVX NSCLC; over 100 µM with HT29 colon; 34.8 µM with NCI-H460 lung; 32.7 µM in the test on RXF 393 renal; 42.1 µM in the test with SF-295 CNS.

Regarding `Cn1c2ccccc2c(=Nc2ccccc2)c2c3ccccc3[nH]c21`, the GI50 with 786-0 renal is 1.33 µM; in the test with BT-549 breast it was 3.15 µM; with EKVX NSCLC it was 3.21 µM; in the test with HOP-92 NSCLC, 0.942 µM; with HT29 colon, 2.36 µM; in the test on MDA-MB-435, 1.84 µM. Further, the GI50 with NCI-H460 lung was 0.41 µM; in the test on RXF 393 renal it was 1.84 µM; in the test with SF-295 CNS, 1.03 µM. The TGI was 2.63 µM with 786-0 renal; 7.13 µM in the test on BT-549 breast; 8.63 µM with EKVX NSCLC; 2.39 µM with HOP-92 NSCLC; over 100 µM in the test with HT29 colon; 3.32 µM in the test on MDA-MB-435. For the same molecule, the TGI in the test with NCI-H460 lung amounted to 1.49 µM; in the test with RXF 393 renal, 4.05 µM; with SF-295 CNS it was 2.22 µM.

`Nc1[nH]c(=O)ncc1F`: the TGI in the test with 786-0 renal, in the test with BT-549 breast, in the test on EKVX NSCLC, with HOP-92 NSCLC, with HT29 colon and with MDA-MB-435 was over 100 µM throughout. In addition, the TGI in the test with NCI-H460 lung, in the test on RXF 393 renal and with SF-295 CNS was over 100 µM throughout.

Consider `C[Si](C)(C)/C=C/CCC(C=O)(CCCl)c1ccccc1` (configuration not stated), for which the TGI with 786-0 renal was 40.8 µM; in the test with CCRF-CEM leukemia, over 100 µM; in the test with EKVX NSCLC, over 100 µM; with HOP-92 NSCLC, 89.1 µM; in the test on HT29 colon, 36 µM; with NCI-H460 lung, over 100 µM. Also, the TGI was determined as 54.6 µM in the test on RXF 393 renal and 57.2 µM in the test on SF-295 CNS.

With `CC1=NNC(=NCCN(C)C)C/C1=C/c1ccccc1Cl`, the TGI in the test on 786-0 renal, in the test with EKVX NSCLC, in the test with HT29 colon, with NCI-H460 lung, in the test with RXF 393 renal and in the test on SF-295 CNS was over 100 µM in each case.

In the case of `CC(C)[C@@H]1C=C(c2ccccc2)c2ccccc2C1C(C#N)(C#N)C(C)C` (some centres not stated), the TGI in the test with 786-0 renal, in the test on CCRF-CEM leukemia, in the test with EKVX NSCLC, in the test with HOP-92 NSCLC, in the test with HT29 colon and with NCI-H460 lung was over 100 µM in each case. Also, the TGI with RXF 393 renal and with SF-295 CNS was over 100 µM throughout.

On to `Nc1nc2c(ncn2C2OC(CO)C(O)C2N)c(=O)[nH]1` (configuration not stated), for which the TGI in the test with 786-0 renal, with CCRF-CEM leukemia, in the test on HOP-92 NSCLC, with HT29 colon, with NCI-H460 lung and in the test on SF-295 CNS was over 100 µM throughout.

With `COC(=O)C[CH](C(=O)OC)[Ge]([CH3])([CH3])[S]c1ccccc1` (configuration not stated), the GI50 with 786-0 renal is 15.9 µM; with CCRF-CEM leukemia, 1.67 µM; in the test on EKVX NSCLC, 16.1 µM; with HOP-92 NSCLC it was 48.6 µM; in the test on HT29 colon it was 18.6 µM; in the test with NCI-H460 lung, 15.5 µM. For the same molecule, the GI50 in the test on RXF 393 renal is 37.9 µM; in the test on SF-295 CNS, 12.6 µM. The TGI with 786-0 renal came to 30.7 µM; in the test on CCRF-CEM leukemia it was 6.25 µM; in the test on EKVX NSCLC, 75.2 µM; in the test with HOP-92 NSCLC, 95.8 µM; with HT29 colon it was 38.5 µM; in the test with NCI-H460 lung it was 28.8 µM. Further, the TGI in the test on RXF 393 renal is 55.9 µM; with SF-295 CNS, 40 µM.

Regarding `COc1ccc(SC2c3cc(OC)c(OC)cc3Oc3nc(N)c(C#N)c(N)c32)cc1` (configuration not stated), the GI50 was 0.493 µM in the test with 786-0 renal; 1.02 µM in the test with BT-549 breast; 1.74 µM in the test with EKVX NSCLC; 1.24 µM in the test on HOP-92 NSCLC; 2.16 µM in the test on HT29 colon; 1.5 µM in the test on MDA-MB-435. Also, the GI50 is 1.66 µM in the test on NCI-H460 lung, 0.74 µM in the test with RXF 393 renal and 1.6 µM in the test on SF-295 CNS. Further, the TGI in the test on 786-0 renal was found to be 1.73 µM; with BT-549 breast, 2.19 µM; in the test on EKVX NSCLC, 3.34 µM; in the test on HOP-92 NSCLC, 2.72 µM; in the test with HT29 colon it was 5.04 µM; in the test with MDA-MB-435 it was 2.92 µM. For the same molecule, the TGI stood at 4.38 µM in the test with NCI-H460 lung, 2.01 µM in the test with RXF 393 renal and 2.96 µM in the test with SF-295 CNS.

Take `CCCCCCCCCCCC(=O)OCC1OC(n2cc(F)c(=O)[nH]c2=O)C(NC(=O)OCc2ccccc2)C(O)C1O` (configuration not stated): the TGI was 50.9 µM with 786-0 renal; 41.7 µM in the test with CCRF-CEM leukemia; 79.9 µM in the test with EKVX NSCLC; 40.7 µM with HOP-92 NSCLC; 29.8 µM in the test on HT29 colon; 34.3 µM in the test on NCI-H460 lung. In addition, the TGI was 73.6 µM in the test with RXF 393 renal and 63.9 µM in the test on SF-295 CNS.

`OCC(O)C(O)c1nn(-c2ccccc2)c2nc3cc(Cl)c(Cl)cc3nc12` (configuration not stated): the TGI was 68.4 µM in the test with 786-0 renal; over 100 µM in the test with CCRF-CEM leukemia; over 100 µM in the test on EKVX NSCLC; 82.1 µM with HOP-92 NSCLC; 56 µM in the test with HT29 colon; 82.1 µM with NCI-H460 lung. Moreover, the TGI in the test with RXF 393 renal was 47.4 µM; in the test with SF-295 CNS it was over 100 µM.

Take `S=c1nc(-c2ccccc2)oc(=NC2CCCCC2)n1C1CCCCC1`: the GI50 with 786-0 renal is 4.46 µM; with CCRF-CEM leukemia, 1.75 µM; in the test with EKVX NSCLC, 2.14 µM; in the test with HT29 colon it was 4.1 µM; with MDA-MB-435 it was 3.36 µM; with NCI-H460 lung, 2.93 µM. The GI50 in the test on SF-295 CNS was 4.07 µM. Moreover, the TGI in the test with 786-0 renal stood at 16.2 µM; with CCRF-CEM leukemia it was 8.87 µM; in the test with EKVX NSCLC, 12 µM; with HOP-92 NSCLC, 0.079 µM; in the test with HT29 colon, 14.8 µM; in the test on MDA-MB-435 it was 8.82 µM. Besides, the TGI was 10.2 µM in the test on NCI-H460 lung and 37.4 µM in the test with SF-295 CNS.

As for `NCCCCCS(=O)(=O)O`, the TGI in the test on 786-0 renal, in the test on CCRF-CEM leukemia, in the test with EKVX NSCLC, with HT29 colon, in the test on NCI-H460 lung and in the test with RXF 393 renal was over 100 µM throughout.
